Numbered stars: 1 amine (or outer) side, 2 acyl side, 3 side chain; on linkers, the order of the positions; unused ones are H or OH. Bridge positions count the residues as written; N and C are the ends. Square brackets hold non-standard residues; d marks the D form. Peptide text beside a SMILES is read from it. * marks the point of attachment. Phe(3-CH2NH2) = O=C([C@H](Cc1cccc(CN[*:3])c1)N[*:1])[*:2]; Trp(1-CH2COOH) = N[C@@H](Cc1cn(CC(=O)O)c2ccccc12)C(=O)O; Phe(4-COOH) = N[C@@H](Cc1ccc(C(=O)O)cc1)C(=O)O; Bip = N[C@@H](Cc1ccc(-c2ccccc2)cc1)C(=O)O; Phe(3-Me) = Cc1cccc(C[C@H](N)C(=O)O)c1; hArg = N=C(N)NCCCC[C@H](N)C(=O)O; 2Pal = N[C@@H](Cc1ccccn1)C(=O)O; Cha = N[C@@H](CC1CCCCC1)C(=O)O; Agb = N=C(N)NCC[C@H](N)C(=O)O; Carboxymethyl = O=C(O)C*; NMeA = CN[C@@H](C)C(=O)O; Nle = CCCC[C@H](N)C(=O)O; Orn = NCCC[C@H](N)C(=O)O; Dab = NCC[C@H](N)C(=O)O; Dap = NC[C@H](N)C(=O)O
These compounds were tested against T1, Alexa fluor-647 labeled human PD-L1-Ig binding to Jurkat cell line over-expressing human PD-1 (Homo sapiens, UniProt Q15116) (assay: Jurkat-PD-1 Cell Binding High-Content Screening Assay (CBA): Method 3 (Alexa fluor-647 labeled PD-L1-Ig)). Conditions: Jurkat-PD-1 cells, Alexa fluor-647 labeled PD-L1-Ig 177 nM; head μM; read-out: CBA Method 3 μM.
T1 construct: expressed in transfected cells; host or cells: Jurkat
T1 sequence (Q15116 25-288): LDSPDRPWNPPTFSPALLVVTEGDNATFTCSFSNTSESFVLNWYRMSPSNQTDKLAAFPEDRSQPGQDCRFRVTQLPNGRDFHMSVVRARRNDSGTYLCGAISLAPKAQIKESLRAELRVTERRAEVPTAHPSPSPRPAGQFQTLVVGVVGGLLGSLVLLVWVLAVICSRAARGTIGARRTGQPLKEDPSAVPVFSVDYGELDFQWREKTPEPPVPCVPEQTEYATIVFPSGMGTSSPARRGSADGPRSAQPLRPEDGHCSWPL
Summary of the method: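 Jurkat cells over-expressing human PD-1 in RPMI/10% FCS were preincubated 2 h at 37 °C with compound, then exposed 1 h to Alexa fluor-647 labeled human PD-L1-Ig (177 nM final). Cells fixed in 4% paraformaldehyde with Hoechst 33342 and binding quantified by high-content imaging.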

| IC50 [µM] | Compound |
| --- | --- |
| 0.33 | Cc1cccc(C[C@@H]2NC(=O)[C@H](CC(=O)O)NC(=O)[C@H](Cc3ccc(OCC(=O)O)cc3)NC(=O)[C@H](Cc3ccccn3)NC(=O)CSC[C@@H](C(=O)N[C@@H](CCN)C(N)=O)NC(=O)[C@H](CCCN)NC(=O)[C@H](C(C)C)NC(=O)[C@H](CC3CCCCC3)NC(=O)[C@H](CCN)NC(=O)[C@@H](CC(C)C)NC(=O)[C@H](C)N(C)C(=O)[C@H](CCC(N)=O)NC(=O)[C@H](Cc3ccc(-c4ccccc4)cc3)NC(=O)[C@H](Cc3ccc(C(=O)O)cc3)NC2=O)c1 [Example 5172] ({CH2CO}-[2Pal]Y(Carboxymethyl)D[Phe(3-Me)][Phe(4-COOH)][Bip]Q[NMeA][dL][Dab][Cha]V[Orn]C[Dab]-NH2; thioether N-14) |
| 0.01 | Cc1cccc(C[C@@H]2NC(=O)[C@H](CC(=O)O)NC(=O)[C@H](Cc3ccc(OCC(=O)O)cc3)NC(=O)[C@H](CC3CCCCC3)NC(=O)CSC[C@@H](C(=O)N[C@@H](CCN)C(N)=O)NC(=O)[C@H](CCCN)NC(=O)[C@H](C(C)C)NC(=O)[C@H](CC3CCCCC3)NC(=O)[C@H](CCN)NC(=O)[C@@H](CC(C)C)NC(=O)[C@H](C)N(C)C(=O)[C@H](CCC(N)=O)NC(=O)[C@H](Cc3ccc(-c4ccccc4)cc3)NC(=O)[C@H](Cc3ccc(C(=O)O)cc3)NC2=O)c1 [Example 5174] ({CH2CO}-[Cha]Y(Carboxymethyl)D[Phe(3-Me)][Phe(4-COOH)][Bip]Q[NMeA][dL][Dab][Cha]V[Orn]C[Dab]-NH2; thioether N-14) |
| 0.01 | CCCC[C@@H]1NC(=O)CSC[C@@H](C(=O)N[C@@H](CCN)C(N)=O)NC(=O)[C@H](CCCN)NC(=O)[C@H](C(C)C)NC(=O)[C@H](CC2CCCCC2)NC(=O)[C@H](CCN)NC(=O)[C@@H](CC(C)C)NC(=O)[C@H](C)N(C)C(=O)[C@H](CCC(N)=O)NC(=O)[C@H](Cc2ccc(-c3ccccc3)cc2)NC(=O)[C@H](Cc2ccc(C(=O)O)cc2)NC(=O)[C@H](Cc2cccc(C)c2)NC(=O)[C@H](CC(=O)O)NC(=O)[C@H](Cc2ccc(OCC(=O)O)cc2)NC1=O [Example 5175] ({CH2CO}-[Nle]Y(Carboxymethyl)D[Phe(3-Me)][Phe(4-COOH)][Bip]Q[NMeA][dL][Dab][Cha]V[Orn]C[Dab]-NH2; thioether N-14) |
| 0.01 | Cc1cccc(C[C@@H]2NC(=O)[C@H](CC(=O)O)NC(=O)[C@H](Cc3ccc(OCC(=O)O)cc3)NC(=O)[C@H](Cc3cccc(CN)c3)NC(=O)CSC[C@@H](C(=O)N[C@@H](CCN)C(N)=O)NC(=O)[C@H](CCCN)NC(=O)[C@H](C(C)C)NC(=O)[C@H](CC3CCCCC3)NC(=O)[C@H](CCN)NC(=O)[C@@H](CC(C)C)NC(=O)[C@H](C)N(C)C(=O)[C@H](CCC(N)=O)NC(=O)[C@H](Cc3ccc(-c4ccccc4)cc3)NC(=O)[C@H](Cc3ccc(C(=O)O)cc3)NC2=O)c1 [Example 5176] ({CH2CO}-[Phe(3-CH2NH2)]Y(Carboxymethyl)D[Phe(3-Me)][Phe(4-COOH)][Bip]Q[NMeA][dL][Dab][Cha]V[Orn]C[Dab]-NH2; thioether N-14) |
| 0.3 | Cc1cccc(C[C@@H]2NC(=O)[C@H](CC(=O)O)NC(=O)[C@H](Cc3ccc(OCC(=O)O)cc3)NC(=O)[C@H](CN)NC(=O)CSC[C@@H](C(=O)N[C@@H](CCN)C(N)=O)NC(=O)[C@H](CCCN)NC(=O)[C@H](C(C)C)NC(=O)[C@H](CC3CCCCC3)NC(=O)[C@H](CCN)NC(=O)[C@@H](CC(C)C)NC(=O)[C@H](C)N(C)C(=O)[C@H](CCC(N)=O)NC(=O)[C@H](Cc3ccc(-c4ccccc4)cc3)NC(=O)[C@H](Cc3ccc(C(=O)O)cc3)NC2=O)c1 [Example 5178] ({CH2CO}-[Dap]Y(Carboxymethyl)D[Phe(3-Me)][Phe(4-COOH)][Bip]Q[NMeA][dL][Dab][Cha]V[Orn]C[Dab]-NH2; thioether N-14) |
| 0.01 | Cc1cccc(C[C@@H]2NC(=O)[C@H](CC(=O)O)NC(=O)[C@H](Cc3ccc(OCC(=O)O)cc3)NC(=O)[C@H](CCNC(=N)N)NC(=O)CSC[C@@H](C(=O)N[C@@H](CCN)C(N)=O)NC(=O)[C@H](CCCN)NC(=O)[C@H](C(C)C)NC(=O)[C@H](CC3CCCCC3)NC(=O)[C@H](CCN)NC(=O)[C@@H](CC(C)C)NC(=O)[C@H](C)N(C)C(=O)[C@H](CCC(N)=O)NC(=O)[C@H](Cc3ccc(-c4ccccc4)cc3)NC(=O)[C@H](Cc3ccc(C(=O)O)cc3)NC2=O)c1 [Example 5182] ({CH2CO}-[Agb]Y(Carboxymethyl)D[Phe(3-Me)][Phe(4-COOH)][Bip]Q[NMeA][dL][Dab][Cha]V[Orn]C[Dab]-NH2; thioether N-14) |

Same assay, conditions: Jurkat-PD-1 cells, Alexa fluor-647 labeled PD-L1-Ig 177 nM; nM; read-out: CBA Method 3

| Compound | IC50 [µM] |
| --- | --- |
| Cc1cccc(C[C@@H]2NC(=O)[C@H](CC(=O)O)NC(=O)[C@H](Cc3ccc(OCC(=O)O)cc3)NC(=O)[C@H](Cc3cn(CC(=O)O)c4ccccc34)NC(=O)CSC[C@@H](C(=O)N[C@@H](CCN)C(N)=O)NC(=O)[C@H](CCCN)NC(=O)[C@H](C(C)C)NC(=O)[C@H](CC3CCCCC3)NC(=O)[C@H](CCN)NC(=O)[C@@H](CC(C)C)NC(=O)[C@H](C)N(C)C(=O)[C@H](CCC(N)=O)NC(=O)[C@H](Cc3ccc(-c4ccccc4)cc3)NC(=O)[C@H](Cc3ccc(C(=O)O)cc3)NC2=O)c1 [Example 5171] ({CH2CO}-[Trp(1-CH2COOH)]Y(Carboxymethyl)D[Phe(3-Me)][Phe(4-COOH)][Bip]Q[NMeA][dL][Dab][Cha]V[Orn]C[Dab]-NH2; thioether N-14) | 0.0044 |
| Cc1cccc(C[C@@H]2NC(=O)[C@H](CC(=O)O)NC(=O)[C@H](Cc3ccc(OCC(=O)O)cc3)NC(=O)[C@H](CCN)NC(=O)CSC[C@@H](C(=O)N[C@@H](CCN)C(N)=O)NC(=O)[C@H](CCCN)NC(=O)[C@H](C(C)C)NC(=O)[C@H](CC3CCCCC3)NC(=O)[C@H](CCN)NC(=O)[C@@H](CC(C)C)NC(=O)[C@H](C)N(C)C(=O)[C@H](CCC(N)=O)NC(=O)[C@H](Cc3ccc(-c4ccccc4)cc3)NC(=O)[C@H](Cc3ccc(C(=O)O)cc3)NC2=O)c1 [Example 5179] ({CH2CO}-[Dab]Y(Carboxymethyl)D[Phe(3-Me)][Phe(4-COOH)][Bip]Q[NMeA][dL][Dab][Cha]V[Orn]C[Dab]-NH2; thioether N-14) | 0.0039 |

Now from value to compound:

| IC50 [µM] | Compound |
| --- | --- |
| 0.0068 | Cc1cccc(C[C@@H]2NC(=O)[C@H](CC(=O)O)NC(=O)[C@H](Cc3ccc(OCC(=O)O)cc3)NC(=O)[C@H](CCCN)NC(=O)CSC[C@@H](C(=O)N[C@@H](CCN)C(N)=O)NC(=O)[C@H](CCCN)NC(=O)[C@H](C(C)C)NC(=O)[C@H](CC3CCCCC3)NC(=O)[C@H](CCN)NC(=O)[C@@H](CC(C)C)NC(=O)[C@H](C)N(C)C(=O)[C@H](CCC(N)=O)NC(=O)[C@H](Cc3ccc(-c4ccccc4)cc3)NC(=O)[C@H](Cc3ccc(C(=O)O)cc3)NC2=O)c1 [Example 5180] ({CH2CO}-[Orn]Y(Carboxymethyl)D[Phe(3-Me)][Phe(4-COOH)][Bip]Q[NMeA][dL][Dab][Cha]V[Orn]C[Dab]-NH2; thioether N-14) |
| 0.0038 | Cc1cccc(C[C@@H]2NC(=O)[C@H](CC(=O)O)NC(=O)[C@H](Cc3ccc(OCC(=O)O)cc3)NC(=O)[C@H](CCCCN)NC(=O)CSC[C@@H](C(=O)N[C@@H](CCN)C(N)=O)NC(=O)[C@H](CCCN)NC(=O)[C@H](C(C)C)NC(=O)[C@H](CC3CCCCC3)NC(=O)[C@H](CCN)NC(=O)[C@@H](CC(C)C)NC(=O)[C@H](C)N(C)C(=O)[C@H](CCC(N)=O)NC(=O)[C@H](Cc3ccc(-c4ccccc4)cc3)NC(=O)[C@H](Cc3ccc(C(=O)O)cc3)NC2=O)c1 [Example 5181] ({CH2CO}-KY(Carboxymethyl)D[Phe(3-Me)][Phe(4-COOH)][Bip]Q[NMeA][dL][Dab][Cha]V[Orn]C[Dab]-NH2; thioether N-14) |
| 0.0023 | Cc1cccc(C[C@@H]2NC(=O)[C@H](CC(=O)O)NC(=O)[C@H](Cc3ccc(OCC(=O)O)cc3)NC(=O)[C@H](CCCNC(=N)N)NC(=O)CSC[C@@H](C(=O)N[C@@H](CCN)C(N)=O)NC(=O)[C@H](CCCN)NC(=O)[C@H](C(C)C)NC(=O)[C@H](CC3CCCCC3)NC(=O)[C@H](CCN)NC(=O)[C@@H](CC(C)C)NC(=O)[C@H](C)N(C)C(=O)[C@H](CCC(N)=O)NC(=O)[C@H](Cc3ccc(-c4ccccc4)cc3)NC(=O)[C@H](Cc3ccc(C(=O)O)cc3)NC2=O)c1 [Example 5183] ({CH2CO}-RY(Carboxymethyl)D[Phe(3-Me)][Phe(4-COOH)][Bip]Q[NMeA][dL][Dab][Cha]V[Orn]C[Dab]-NH2; thioether N-14) |
| 0.0011 | Cc1cccc(C[C@@H]2NC(=O)[C@H](CC(=O)O)NC(=O)[C@H](Cc3ccc(OCC(=O)O)cc3)NC(=O)[C@H](CCCCNC(=N)N)NC(=O)CSC[C@@H](C(=O)N[C@@H](CCN)C(N)=O)NC(=O)[C@H](CCCN)NC(=O)[C@H](C(C)C)NC(=O)[C@H](CC3CCCCC3)NC(=O)[C@H](CCN)NC(=O)[C@@H](CC(C)C)NC(=O)[C@H](C)N(C)C(=O)[C@H](CCC(N)=O)NC(=O)[C@H](Cc3ccc(-c4ccccc4)cc3)NC(=O)[C@H](Cc3ccc(C(=O)O)cc3)NC2=O)c1 [Example 5184] ({CH2CO}-[hArg]Y(Carboxymethyl)D[Phe(3-Me)][Phe(4-COOH)][Bip]Q[NMeA][dL][Dab][Cha]V[Orn]C[Dab]-NH2; thioether N-14) |
| 0.008 | Cc1cccc(C[C@@H]2NC(=O)[C@H](CC(=O)O)NC(=O)[C@H](Cc3ccc(OCC(=O)O)cc3)NC(=O)[C@H](CC(N)=O)NC(=O)CSC[C@@H](C(=O)N[C@@H](CCN)C(N)=O)NC(=O)[C@H](CCCN)NC(=O)[C@H](C(C)C)NC(=O)[C@H](CC3CCCCC3)NC(=O)[C@H](CCN)NC(=O)[C@@H](CC(C)C)NC(=O)[C@H](C)N(C)C(=O)[C@H](CCC(N)=O)NC(=O)[C@H](Cc3ccc(-c4ccccc4)cc3)NC(=O)[C@H](Cc3ccc(C(=O)O)cc3)NC2=O)c1 [Example 5187] ({CH2CO}-NY(Carboxymethyl)D[Phe(3-Me)][Phe(4-COOH)][Bip]Q[NMeA][dL][Dab][Cha]V[Orn]C[Dab]-NH2; thioether N-14) |

Reference: patent publication US20240409585A1, “MACROCYCLIC IMMUNOMODULATORS” (priority 2021, published 2024)
